From PubChem BioAssay (NCI)
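Results reflect a 48-hour exposure of cells in 96-well plates to compound at five concentrations. TGI: total growth inhibition.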

Tests used:
Assay in all cases: NCI tumour cell line growth inhibition, 48 h
[1] = tested on: A498 renal
[2] = tested on: A549 NSCLC
[3] = tested on: CAKI-1 renal
[4] = tested on: CCRF-CEM leukemia
[5] = tested on: COLO 205 colon
[6] = tested on: DLD-1 colon
[7] = tested on: DMS 114 small cell lung
[8] = tested on: DMS 273 small cell lung
[9] = tested on: EKVX NSCLC
[10] = tested on: HCC-2998 colon
[11] = tested on: HCT-116 colon
[12] = tested on: HCT-15 colon
[13] = tested on: HL-60(TB) leukemia
[14] = tested on: HOP-18 NSCLC
[15] = tested on: HOP-62 NSCLC
[16] = tested on: HOP-92 NSCLC
[17] = tested on: HT29 colon
[18] = tested on: IGROV1 ovarian
[19] = tested on: K-562 leukemia
[20] = tested on: KM12 colon
[21] = tested on: KM20L2 colon
[22] = tested on: LOX IMVI melanoma
[23] = tested on: M19-MEL melanoma
[24] = tested on: MALME-3M melanoma
[25] = tested on: MCF7 breast
[26] = tested on: MOLT-4 leukemia
[27] = tested on: NCI-H226 lung
[28] = tested on: NCI-H23 lung
[29] = tested on: NCI-H460 lung
[30] = tested on: NCI-H522 lung
[31] = tested on: NCI/ADR-RES ovarian
[32] = tested on: OVCAR-3 ovarian
[33] = tested on: OVCAR-4 ovarian
[34] = tested on: OVCAR-5 ovarian
[35] = tested on: OVCAR-8 ovarian
[36] = tested on: P388 leukemia
[37] = tested on: P388/ADR leukemia
[38] = tested on: RPMI-8226 leukemia
[39] = tested on: RXF 393 renal
[40] = tested on: SF-268 CNS
[41] = tested on: SF-295 CNS
[42] = tested on: SF-539 CNS
[43] = tested on: SK-MEL-2 melanoma
[44] = tested on: SK-MEL-28 melanoma
[45] = tested on: SK-MEL-5 melanoma
[46] = tested on: SK-OV-3 ovarian
[47] = tested on: SN12C renal
[48] = tested on: SN12K1 renal
[49] = tested on: SNB-19 CNS
[50] = tested on: SNB-75 CNS
[51] = tested on: SNB-78 CNS
[52] = tested on: SW-620 colon
[53] = tested on: U251 CNS
[54] = tested on: UACC-257 melanoma
[55] = tested on: UACC-62 melanoma
[56] = tested on: UO-31 renal
[57] = tested on: XF 498 CNS
[58] = tested on: 786-0 renal
[59] = tested on: ACHN renal
[60] = tested on: LXFL 529 NSCLC
[61] = tested on: M14 melanoma
[62] = tested on: RXF-631 renal
[63] = tested on: TK-10 renal

CCOC(=O)/C(O)=C1\C(=O)N(C)C(=O)C1c1ccc(OC)c(OC)c1 (stereo unspecified) showed a TGI [1] of over 100 µM, a TGI [2] of over 100 µM and a TGI [3] of over 100 µM. The TGI [4] was over 100 µM, the TGI [5] was over 100 µM and the TGI [6] was over 100 µM. The TGI [7] was over 100 µM, the TGI [8] was over 100 µM and the TGI [9] was over 100 µM. It also gave a TGI [10] of over 100 µM, a TGI [11] of over 100 µM and a TGI [12] of over 100 µM. The TGI [13] was over 100 µM, the TGI [14] was over 100 µM and the TGI [15] was over 100 µM. The TGI [16] was over 100 µM, the TGI [17] was over 100 µM and the TGI [18] was over 100 µM. For the same compound, the TGI [19] was over 100 µM, the TGI [20] was over 100 µM and the TGI [21] was over 100 µM. The TGI [22] was over 100 µM, the TGI [23] was over 100 µM and the TGI [24] was over 100 µM. The TGI [25] was over 100 µM, the TGI [26] was over 100 µM and the TGI [27] was over 100 µM. It also gave a TGI [28] of over 100 µM, a TGI [29] of over 100 µM and a TGI [30] of over 100 µM. It also gave a TGI [31] of over 100 µM, a TGI [32] of over 100 µM and a TGI [33] of over 100 µM. The TGI [34] was over 100 µM, the TGI [35] was over 100 µM and the TGI [36] was over 100 µM. For the same compound, the TGI [37] was over 31.6 µM, the TGI [38] was over 100 µM and the TGI [39] was over 100 µM. The TGI [40] was over 100 µM, the TGI [41] was over 100 µM and the TGI [42] was over 100 µM. It also gave a TGI [43] of over 100 µM, a TGI [44] of over 100 µM and a TGI [45] of over 100 µM. It also gave a TGI [46] of over 100 µM, a TGI [47] of over 100 µM and a TGI [48] of over 100 µM. For the same compound, the TGI [49] was over 100 µM, the TGI [50] was over 100 µM and the TGI [51] was over 100 µM. The TGI [52] was over 31.6 µM, the TGI [53] was over 100 µM and the TGI [54] was over 100 µM. It also gave a TGI [55] of over 100 µM, a TGI [56] of over 100 µM and a TGI [57] of over 100 µM.

Cn1c2c(c3ccccc31)CCN(CCCCN1CCc3c(n(C)c4ccccc34)C1=O)C2 was tested, and the TGI [58] was over 100 µM, the TGI [1] was over 100 µM and the TGI [2] was over 100 µM. For the same compound, the TGI [59] was over 100 µM, the TGI [3] was over 100 µM and the TGI [4] was over 100 µM. It also gave a TGI [5] of over 100 µM, a TGI [6] of over 100 µM and a TGI [7] of over 100 µM. For the same compound, the TGI [8] was over 100 µM, the TGI [9] was over 100 µM and the TGI [11] was over 100 µM. It also gave a TGI [12] of over 100 µM, a TGI [13] of over 100 µM and a TGI [14] of over 100 µM. For the same compound, the TGI [15] was over 100 µM, the TGI [16] was over 100 µM and the TGI [17] was over 100 µM. The TGI [18] was over 100 µM, the TGI [19] was over 100 µM and the TGI [21] was over 100 µM. The TGI [60] was over 100 µM, the TGI [61] was over 100 µM and the TGI [23] was over 100 µM. It also gave a TGI [24] of over 100 µM, a TGI [26] of over 100 µM and a TGI [28] of over 100 µM. The TGI [29] was over 100 µM, the TGI [30] was over 100 µM and the TGI [32] was over 100 µM. The TGI [33] was over 100 µM, the TGI [34] was over 100 µM and the TGI [35] was over 100 µM. The TGI [38] was over 100 µM, the TGI [39] was over 100 µM and the TGI [62] was over 100 µM. For the same compound, the TGI [40] was over 100 µM, the TGI [41] was over 100 µM and the TGI [42] was over 100 µM. For the same compound, the TGI [43] was over 100 µM, the TGI [44] was over 100 µM and the TGI [45] was over 100 µM. For the same compound, the TGI [46] was over 100 µM, the TGI [47] was over 100 µM and the TGI [49] was over 100 µM. It also gave a TGI [50] of over 100 µM, a TGI [51] of over 100 µM and a TGI [52] of over 100 µM. For the same compound, the TGI [63] was over 100 µM, the TGI [53] was over 100 µM and the TGI [54] was over 100 µM. For the same compound, the TGI [55] was over 100 µM, the TGI [56] was over 100 µM and the TGI [57] was over 100 µM.
